Data: publication PMC8274818 (Bioorganic & medicinal chemistry, 2019)
Values after ≈ are worked out from the molar mass of the structure shown.

Test: Kinetic solubility assay
Assay type: physicochemical
Conditions: phosphate buffer, pH 7.4, aqueous buffer, kinetic from dmso stock

Row | solubility kinetic at 6 h | SMILES
1 | < 1 µg/mL | CCCSc1ccc2nc(NC(=O)OC)[nH]c2c1 [Albendazole, albendazole]
2 | 27.7 ± 4.49 µg/mL (≈ 130 µM) | Nc1ccc(/N=N/c2ccccc2)c(N)n1 [phenazolpyridine]
